According to US7388006B2, “Non-steroidal progesting” (Bayer Schering Pharma AG, priority 2002, dated 2008):

Assays:
[1] = test system: ovulation in adult female rats; assay: In vivo test on progestogenic activity - ovulation inhibition (rat); details: for Ovulation inhibition, result in words / Ovulation inhibition, factor compared to R5020: rat; for Ovulation inhibition, factor compared to R5020: potency relative to R5020
Protocol: Before the treatment is started, two […] cycles of female rats (weight: 190 to 210 g) were monitored. Only animals having a regular 4 day-cycle are used for the subsequent test. Starting in the metoestrus, the test compound is administered for 4 days (day 1 to 4) and the cycle is controlled thereafter.
For subcutaneous application, the test compounds are dissolved in benzyl benzoate/castor oil (1+9 v/v) and the daily dose is administered in a volume of 1 ml/kg body weight.
For peroral application, the test compounds are suspended in a carrier liquid (85 mg Myrj^R in 100 ml 0.9% w/v NaCl solution) and the daily dose is administered in a volume of 2 ml/kg body weight.
On day 4, after the application of the test compound, those animals having estrus or metoestrus are ovariectomized under ether anesthesia on one side. Preparations of the tubes are prepared and they are investigated for ova by means of microscope. On day 5 all animals (intact and partly ovariectomized) are killed with carbon dioxide, the tubes are preserved and analyzed in the same way. It is then determined, as a percentage, in how many animals ovulation was inhibited. […] Accordingly, this compound is to be regarded as having strong, progestational activity.

rat mammary epithelium = assay: Bioassay on proliferating/differentiating effects in the rat mammary epithelium (whole mount staining, terminal and alveolar endbuds); type: in vivo
From the text: The object of this test is to evaluate the effect of progestins on the development of the mammary gland, in particular on the formation of terminal end-buds in the mammary gland in estrogen primed rats. Progestins together with other hormones (prolactin, estrogens, glucocorticoids, growth hormones etc.) induce proliferation and differentiation of the mammary glandular epithelium. In particular, they are involved in the morphogenesis of alveolar and terminal end buds, the sites of milk protein production and secretion into the ductal lumen.
In order to determine the effects of test progestins according to the present invention, in particular compound ((+)-1), in mammary gland differentiation and proliferation, premature female rats (Wistar Han, SPF) are ovariectomized at the age of 21 days, 4 to 6 days before treatment start. The animals are treated for 6 days with standard estrogen (estrone (E1), 70 μg/kg) and the test progestin ((+)-1) (application volume: 0.1 ml/50 g body weight; vehicle: benzylbenzoate/castor oil (1+4 v/v); subcutaneous). Control groups are e.g.: vehicle, estrone without progestin, estradiol together with a known progestin, e.g. R5020 (promegestone). After the 6-day treatment the animals are killed with carbon dioxide.
For the whole mount staining, animals are shaved in the left abdominal inguinal mammary region, which is cut from the body together with the skin. For the histological/immunohistochemical analyses the right abdominal inguinal mammary gland is cut from the body together with the connective-tissue adhered thereto and fixed in 3.7% formalin in PBS (phosphate buffer saline; without Ca^2+/Mg^2+).
The preparations are fixed over night in alcohol-formalin according to the method of Tellyesniczky (see below). Then the mammary gland tissue and subcutis adhered thereto are stripped from the cutis and the preparations are again fixed over night. The further steps are as follows: ethanol 70%: 1.5 hours; acetone: 3×1.5 hours; acetone: over night; isopropanol: 1.5 hours; ethanol 96%: 2 hours; hematoxylin-iron: 3 hours; VE water: first rinse the preparations and then 2×0.5 hours; ethanol 70%: over night; ethanol 80%: 1.5 hours; ethanol 96%: 1.5 hours; isopropanol: 1.5 hours. The preparations are then moved to petri dishes and left in toluene for approximately 1 hour, i.e. until they have stopped to swim up. Then the preparations are treated with cedarwood oil (Merck, no. 1.06965). The incubation times above are minimum times and can be extended. In particular, incubation in ethanol 70% after fixation can be extended to at least 2.5 weeks.
Preparation of the solutions necessary for the whole mount staining: • a) Alcohol-formalin according to Tellyesniczky: formaldehyde 37%: 81.8 ml, ethanol 70%: 1636 ml, glacial acetic acid (to be added shortly before use): 81.8 ml (total: 1800 ml). • b) Hematoxylin mother solution: Hematoxylin (Merck, no. 1.15938): 10 g, ethanol 96%: 100 ml. The solution must stand for 48 hours at 37° C. before use. […]
By means of a 40-fold magnification, the terminal end buds near the nipple in direction of the tail are counted. […] For well-differentiated preparations this area may be reduced, with at least 250 buds to be counted. After counting, the number of end buds per 1 mm^2 is calculated.
The number of terminal and alveolar endbuds is counted per mm^2 +/− standard deviation (SD). […]

[2] = target: T1, glucocorticoid receptor (GR) (Homo sapiens, UniProt P04150); assay: Affinity for the glucocorticoid receptor; type: binding
T1 sequence (P04150 1-777): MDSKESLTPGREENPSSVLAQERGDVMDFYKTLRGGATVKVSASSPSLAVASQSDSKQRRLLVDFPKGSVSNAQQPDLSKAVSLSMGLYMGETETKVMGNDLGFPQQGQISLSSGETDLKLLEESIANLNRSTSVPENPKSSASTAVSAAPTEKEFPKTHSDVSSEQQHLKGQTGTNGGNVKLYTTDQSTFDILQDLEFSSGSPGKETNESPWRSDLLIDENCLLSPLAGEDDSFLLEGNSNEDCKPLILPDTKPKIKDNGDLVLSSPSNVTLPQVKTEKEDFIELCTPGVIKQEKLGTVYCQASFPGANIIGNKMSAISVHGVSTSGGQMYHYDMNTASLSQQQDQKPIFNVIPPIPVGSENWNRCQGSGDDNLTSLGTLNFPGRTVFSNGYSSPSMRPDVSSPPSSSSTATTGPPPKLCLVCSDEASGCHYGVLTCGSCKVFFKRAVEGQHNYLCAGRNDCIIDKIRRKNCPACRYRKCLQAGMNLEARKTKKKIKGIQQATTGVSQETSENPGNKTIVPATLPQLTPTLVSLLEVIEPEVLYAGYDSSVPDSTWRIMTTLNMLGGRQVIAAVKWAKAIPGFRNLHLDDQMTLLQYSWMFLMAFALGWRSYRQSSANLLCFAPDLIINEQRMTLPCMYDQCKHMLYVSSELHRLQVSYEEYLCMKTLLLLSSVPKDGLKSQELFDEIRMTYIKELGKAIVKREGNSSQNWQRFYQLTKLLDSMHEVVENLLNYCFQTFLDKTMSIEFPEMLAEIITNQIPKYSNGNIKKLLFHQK

O=C1OCc2cc(NC(=O)C(O)(CC3(c4cc(C(F)(F)F)ccc4F)CC3)C(F)(F)F)ccc21 (single isomer, unassigned; (+)) [((+)-1), (+)-5-{2-hydroxy-3-[1-(2-fluoro-5-trifluoromethylphenyl)-cyclopropyl]-2-trifluoromethyl-propionylamino}-phthalide]
inhibition at 0.01 mg/kg ([1]; Rattus norvegicus, dose 10 μg/kg, days 1 to 4, female rats): 0%
inhibition at 0.03 mg/kg ([1]; Rattus norvegicus, dose 30 μg/kg, days 1 to 4, female rats): 14%
inhibition at 0.1 mg/kg ([1]; Rattus norvegicus, dose 100 μg/kg, days 1 to 4, female rats): 100%
Ovulation inhibition, result in words [1]: at least as potent as the standard progestin
Ovulation inhibition, factor compared to R5020 ([1]; listed as ((+)-l)): 1 to 2
Ovulation inhibition, factor compared to R5020 ([1]; listed as ((+)−1)): 1-2
Ovulation inhibition, result in words ([1]; listed as ((+)-l)): efficiently inhibited ovulation
Threshold value for the induction of terminal and alveolar endbuds (rat mammary epithelium; FIG. 3): 100 µg/kg/day
Terminal and alveolar end bud formation, result in words (rat mammary epithelium; at doses where pregnancy is fully maintained): no effects on terminal and alveolar end bud formation can be observed
Mammary gland, whole mount staining (rat) [threshold value] (rat mammary epithelium; induction of terminal and alveolar endbuds): 0.1 mg/kg/day
Mammary gland, whole mount staining, factor compared to R5020 (rat mammary epithelium; median of three tests): ca. 1
Dissociation in favor of uterotropic activity (uterus versus mammary gland) (rat mammary epithelium; pregnancy maintenance versus mammary gland): at least six fold
Affinity for the glucocorticoid receptor (GR) [2]: very high affinity
